The values below are quoted from earlier work in patent EP4434551A1, “METHOD FOR DIAGNOSING AND TREATING NIS-EXPRESSING CARCINOMAS AND METASTASES” (Nuske, Andreas, priority 2023, dated 2024).

Each structure is given as a SMILES string.

The test system of this data set is NIS gene. To be noted: breast cancer cell line MCF-7.

As for `CC1=C(/C=C/C(C)=C/C=C/C(C)=C/C(=O)O)C(C)(C)CCC1` [tRA, trans-retinoic acid], the “induction of the NIS gene” value is recorded as “induction of the NIS gene”.
